In patent US9981972B2, “N-hydroxy bicyclic hydantoin carbamates as tools for identification of serine hydrolase targets” (ABIDE THERAPEUTICS, INC., priority 2014, dated 2018):
Converted amounts (≈) assume the structure as drawn.

Legend:
human LYPLA1/2 = test: Selectivity analysis by ABPP-SILAC, HeLa cells in situ, FP-biotin; format: cell-based; conditions: 1 μM, 2 h in situ
Source text: (§1) Competitive ABPP-SILAC (Adibekian, A., et al. J Am Chem Soc, 2012. 134(25): p. 10345-8) combined competitive ABPP (Leung, D., et al. Nat Biotechnol, 2003. 21(6): p. 687-91) with stable isotope labeling of cells (SILAC) (Ong, S. E., et al. Mol Cell Proteomics, 2002. 1(5): p. 376-86), and allowed for precise quantitation of enzyme inhibition by calculating the isotopic ratios of peptides from inhibitor-treated and control cells.
(§2) Assay Overview: The purpose of this assay was to determine the selectivity profile of powder samples of test compounds using stable isotope labeling with amino acids in cell culture (SILAC) ABPP. In this assay, cultured HeLa cells were metabolically labeled with light or heavy amino acids. Light and heavy cells were treated with inhibitor and DMSO, respectively, in situ. Cells were harvested, and proteome fractions were isolated and reacted with the serine-hydrolase-specific activity-based affinity probe fluorophosphonate-biotin (FP-biotin). Light and heavy samples were combined in a 1:1 (w/w) ratio. Biotinylated proteins were enriched, trypsinized, and analyzed by LC/LC-MS/MS (MudPIT) Inhibition of target and anti-target activity was quantified by comparing intensities of light and heavy peptide peaks. […] Proteins not targeted by inhibitors were expected to have a ratio close to 1.
(§3) Sample Preparation. HeLa cells were initially grown for at least eight passages in either light or heavy SILAC DMEM medium supplemented with 10% dialyzed FCS and 1× PenStrep Glutamine in a humidified incubator (37° C., 5% CO2). Light medium was supplemented with 100 μg/mL L-arginine (Sigma) and 100 μg/mL L-lysine (Sigma). Heavy medium was supplemented with 100 μg/mL [13C615N4]-L-Arginine (Isotek) and 100 μg/mL [13C615N2]-L-Lysine (Isotek). […]
(§4) LC-MS/MS analysis. Samples were analyzed by multidimensional liquid chromatography tandem mass spectrometry (MudPIT) using an Agilent 1200-series quaternary pump and Thermo Scientific LTQ Orbitrap Velos ion trap mass spectrometer. […]

MAGL = biological target: T1, MAGL (Homo sapiens, UniProt Q99685); test: as above; format: cell-based; conditions: 2 h in situ
T1 construct: endogenous in cells; host or cells: HeLa
Source text: as §1, §2, §3, §4

ABHD6 = biological target: T2, ABHD6 (Homo sapiens, UniProt Q9BV23); test: as above; format: cell-based; conditions: 2 h in situ, read-out: inhibition of anti-target ABHD6 (ABPP-SILAC)
T2 construct: endogenous in cells; host or cells: HeLa
Source text: as §1, §2, §3, §4

HeLa cells = test: Analysis of cytotoxicity (WST-1); format: cell-based, human
Description: Assay Overview: The purpose of this assay was to determine cytotoxicity of powder samples of test compounds. In this assay, HeLa cells in either serum-free medium or medium containing fetal calf serum (FCS) were incubated with test compounds, followed by determination of cell viability. The assay utilized the WST-1 substrate, which was converted into colorimetric formazan dye by the metabolic activity of viable cells. The amount of formed formazan directly correlated to the number of metabolically active cells in the culture.
Protocol Summary: This assay was started by seeding HeLa cells in DMEM medium supplemented with 10% FCS and 1× Pen-Strep-Glutamine in a 96-well plate. Cells were incubated at 37° C. in a humidified incubator until 80% confluent (24 hours). Medium was removed, and 100 μL of fresh medium (serum-free or supplemented with 10% FCS), pre-mixed with DMSO or test compound, was added to each well. Cells were incubated for 48 hours at 37° C. in a humidified incubator and cell viability was determined by the WST-1 assay (Roche) according to manufacturer instructions. CC50 values were determined from dose-response curves from three replicates at each inhibitor concentration (10, 100, 1000, 10000, 100000 nM), compared to six replicates of cells treated with DMSO only.

[1] = Solubility in media (DMEM+10% FBS); format: physicochemical; conditions: plasma or biological fluid, kinetic from dmso stock, complete media (DMEM+10% FBS), 22° C., read-out: solubility in DMEM containing 10% serum
Description: Solubility in Media: The solubility of compounds were tested in triplicate in complete media (DMEM+10% FBS). Per well, 198 μL PBS is added to a Millipore Solvinert Hydrophilic PTFE 96 well filter plate: pore size: 0.45 μm (MSRLN0450). Test compounds were introduced from 10 mM DMSO stock solutions (2 μL). The final concentration of DMSO was 1 percent. Samples were allowed to incubate at 22° C. for 18 hours. In the morning the plate was centrifuged where the soluble portion passed through the filter and was collected in a capture plate. The samples were analyzed by HPLC (Agilent 1100 with diode-array detector). Peak area was compared to a standard of known concentration.

T2 sequence (Q9BV23 whole entry): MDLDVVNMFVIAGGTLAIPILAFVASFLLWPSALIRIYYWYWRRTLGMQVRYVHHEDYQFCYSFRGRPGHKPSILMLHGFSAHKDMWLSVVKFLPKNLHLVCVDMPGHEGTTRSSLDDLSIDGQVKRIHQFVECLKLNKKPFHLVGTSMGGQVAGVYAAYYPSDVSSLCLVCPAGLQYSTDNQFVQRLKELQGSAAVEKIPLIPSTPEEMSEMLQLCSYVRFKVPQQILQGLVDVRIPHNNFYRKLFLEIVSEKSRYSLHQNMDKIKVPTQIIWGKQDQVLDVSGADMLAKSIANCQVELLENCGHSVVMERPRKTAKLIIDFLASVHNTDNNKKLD
T1 sequence (Q99685 whole entry): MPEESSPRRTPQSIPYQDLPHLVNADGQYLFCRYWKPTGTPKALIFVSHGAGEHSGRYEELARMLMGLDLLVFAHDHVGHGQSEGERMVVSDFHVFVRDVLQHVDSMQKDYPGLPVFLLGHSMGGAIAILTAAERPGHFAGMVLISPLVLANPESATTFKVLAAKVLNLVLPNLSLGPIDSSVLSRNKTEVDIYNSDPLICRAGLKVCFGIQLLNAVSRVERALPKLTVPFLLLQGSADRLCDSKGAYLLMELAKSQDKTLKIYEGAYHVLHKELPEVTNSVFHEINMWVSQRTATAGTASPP

O=C(ON1C(=O)C2CN(C(=O)N3CCOCC3)CCN2C1=O)N1CCC(CCc2ccc(Cl)cc2)CC1 (stereo not drawn) [Compound 1, 7-(morpholine-4-carbonyl)-1,3-dioxohexahydroimidazo[1,5-a]pyrazin-2(3H)-yl 4-(4-chloro-phenethyl)piperidine-1-carboxylate]
inhibition of human LYPLA1/2 (ABPP-SILAC) (human LYPLA1/2): > 90% | inhibition at 1 µM (MAGL): ~40% | inhibition at 1 µM (ABHD6): > 90% | cytotoxicity (HeLa cells; HeLa, 48 h, serum-free and serum-supplemented medium, up to 100 μM): did not show evidence of cytotoxicity | dosing window (CC50 limit 10 μM versus in situ IC50) (HeLa cells; based on in situ IC50 values of 87/143 nM): ~70 fold | solubility at 18 h [1]: 46 µM (≈ 24.6 µg/mL)
